Results on three molecules are retold here after patent publication US20050256077A1, “Gastrointestinal stem cells and uses thereof” (priority 2004, published 2005).

Series [1] concerns intestinal crypts. Briefly: Model I: luminal delivery of cytotoxic drugs to clamped jejunal segment, crypt apoptosis by histology. In kind it is in vivo, mouse. Particulars: for apoptosis in experimental segments / apoptosis in upstream segments: luminal delivery to clamped jejunal segment for 4 hr, 20 mg/kg BW; for apoptosis in experimental segments: apoptotic bodies in H & E sections; for apoptosis in upstream segments: segment immediately upstream. The text has this: A surgical model was developed that is simple and rapid enough to allow appropriate numbers of animals to be studied in a reasonable time period. To this end, a procedure was developed in which a 1 cm piece of jejunum is flushed and then clamped (with microvascular serrefines), the drug or vehicle was delivered to the clamped segment via a 27 gauge needle, the bowel is returned to the abdominal cavity and the incisions in both the peritoneum and the skin are sutured closed. The animal was allowed to regain consciousness for 4-6 hr. At the end of this time there was another brief isofluorane anesthesia, during which the original incisions are opened and the clamps are removed. In addition, at this time the location of the clamps was indicated by a piece of 5-0 silk.
Various doses of DOX and Bleomycin were delivered to clamped segments for 4 hr, then tissue from the experimental segment as well as a segment immediately upstream was collected for histology. Tissue sections were stained with H & E, and apoptosis was assessed by the presence of apoptotic bodies. For quantifying apoptotic cells, 10 crypts per animal (n=3) were selected and scored by a skilled artisan blinded to the experimental conditions. […] Thus, Bleomycin was being absorbed into the circulation and, thus, affecting the entire intestine. In contrast, DOX appears to be capable of local action, thus creating a suitable model for subsequent experiments.
In order to verify that luminally delivered DOX was affecting the stem cell region, the position of apoptotic cells within the crypt was scored. […] This is very similar to the pattern that has been previously reported following IP delivery of DOX (Ijiri and Potten, 1987).

The test system of series [2] is intestinal crypts. Format: in vivo, mice. How it is done: The following model is preferable for luminal delivery of stem cell preparations, particularly wherein a second clamping procedure, such as the day after the damage, is preferable. As there are already published studies on IP delivery of DOX to mice (Ijiri and Potten, 1987; Moore, 1985), minimal additional studies were needed to establish this model. However, although it was already known that an IP dose of 20 mg/kg/BW DOX elicits apoptosis predominantly in the stem cell zone (Ijiri and Potten, 1987) and ablates approximately 50% of the stem cells (Moore, 1985), a complete time course of apoptosis has not been reported. Considering the nature of the timing of stem cell delivery, an apoptosis time course was performed in FIG. 6. […] In contrast, gross morphologic damage is not seen until 72 hr and appears maximal by 96 hr (FIG. 7). By 120 hr the beginning of crypt regeneration from the remaining stem cells is apparent (not shown). Based on these findings, after DOX the optimal time for luminal delivery of stem cells is 6 hr. […] At the same time, a significant proportion of the endogenous stem cells have been ablated, creating an opportunity for the exogenous cells to engraft. The clamping procedure after IP delivery of DOX has been performed successfully, and no evidence was found of gross bleeding into the clamped segment. There is, however, significant morbidity after the IP DOX. For example, body weights initially fall to a similar extent to that after luminal DOX, but in the case of IP DOX they never recover. Although our 10-day survival data after IP DOX is 100%, the literature predicts 40-50% mortality over the next 2 weeks (Oredipe et al., 2003). However, if the myelosuppressive effects of DOX are countered by administration of the drug Swainsonine (Sigma-Aldrich), for example the mice can be maintained until at least 70 days with only 36% mortality (Oredipe et al., 2003).

Series [3] has as its system crypts of the mouse small intestine. Particulars: cited from earlier work; for i.p. dose that causes sterilization of 50% of crypts: dose-response data of Moore (1985).
For series [4] the following is noted: cited from earlier work.
For series [5] the following is noted: mouse, in vivo; cited from earlier work.
For series [6] the following is noted: cited from earlier work. The source holds these as a separate data set.
For series [7] the following is noted: cited from earlier work. The source holds these as a separate data set.
Series [8] is described as follows: i.p. LD50 (literature). In kind it is in vivo. Particulars: mice.
For series [9] the following is noted: mice; cited from earlier work.
The subject of series [10] is bone marrow. Particulars: administered systemically (Goodman and Gilman, 1975); cited from earlier work.

For the molecule `COc1cccc2c1C(=O)c1c(O)c3c(c(O)c1C2=O)C[C@@](O)(C(=O)CO)C[C@@H]3O[C@H]1C[C@H](N)[C@H](O)[C@H](C)O1` [DOX, doxorubicin], the “damage to the basement membrane or to the underlying stromal tissue” value in series [1] (luminal DOX, light and EM levels) is reported as “no evidence of damage”. For the same molecule, in series [1], the “apoptosis in experimental segments” value is “significant apoptosis” and the “apoptosis in upstream segments” value was “minimal effects”. In series [2] (IP DOX 20 mg/kg BW), the “time of apoptosis peak” value is 6 h, the “time of beginning of crypt regeneration from remaining stem cells” value was at most 120 h, the “time of maximal gross morphologic damage” value was at most 96 hr and the “time until gross morphologic damage is seen” value is 72 hr. Also, the “apoptosis by 24 hr” value in [2] (IP DOX 20 mg/kg BW, 24 hr) was “greatly reduced”. Moreover, the body weights result in series [2] (mouse, in vivo, ip) is “never recover”. In series [2] (mouse, in vivo, ip, 10 day), the 10-day survival amounted to 100%. The “small intestinal crypts sterilized” value in series [3] (IP 20 mg/kg BW (Moore, 1985)) was “approximately 50%”. Moreover, the stem cells ablated result in series [3] (IP dose of 20 mg/kg/BW (Moore, 1985)) is recorded as “approximately 50%”. Further, the “i.p. dose that causes sterilization of 50% of crypts” value in [3] is on record as 15 mg/kg. For the same molecule, in series [4], the “removed by the liver in a single pass” value was 60%. For the same molecule, the half-life in series [5] was 35 min. Also, in [6], the “solubility in normal saline” value was “soluble in normal saline”. Also, the “mortality over the next 2 weeks” value in [7] (after IP DOX, beyond 10 days, literature prediction) is listed as 40-50%.
`O[C@H]1[C@H]2[C@H](O)CCCN2C[C@H]1O` [Swainsonine]: in series [7] (Swainsonine given to counter myelosuppressive effects of DOX), the “mortality until at least 70 days” value was 36%.
Take Bleomycin: in [1], the “apoptosis in experimental segments” value is reported as “caused apoptosis”; the “apoptosis in upstream segments” value was “caused apoptosis in both experimental segment and upstream segments”. For the same molecule, the “i.p. LD50 relative to i.p. dose causing sterilization of 50% of intestinal crypts” value in series [8] is around 4 fold. For the same molecule, in series [3], the “i.p. dose that causes sterilization of 50% of crypts” value is recorded as 60 mg/kg. Besides, the “i.p. LD50” value in series [9] is on record as 210 mg/kg. Besides, the “solubility in normal saline” value in series [6] is reported as “soluble in normal saline”. Moreover, the “toxicity to bone marrow” value in series [10] is listed as “minimal toxicity to bone marrow”.
